Laboratory results: PubChem BioAssay (NCI)
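48-hour exposure; five concentrations; linearly interpolated endpoints. GI50 marks 50% less growth. TGI: concentration producing complete growth inhibition.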

What was measured:
Assay in all cases: NCI-60 cell line screen, 48 h
EKVX NSCLC = tested on: EKVX NSCLC
PC-3 prostate = tested on: PC-3 prostate
SN12C renal = tested on: SN12C renal
NCI-H23 lung = tested on: NCI-H23 lung
OVCAR-5 ovarian = tested on: OVCAR-5 ovarian
ACHN renal = tested on: ACHN renal
MCF7 breast = tested on: MCF7 breast
M14 melanoma = tested on: M14 melanoma
SF-539 CNS = tested on: SF-539 CNS
IGROV1 ovarian = tested on: IGROV1 ovarian
OVCAR-3 ovarian = tested on: OVCAR-3 ovarian
MOLT-4 leukemia = tested on: MOLT-4 leukemia
MDA-MB-231 breast = tested on: MDA-MB-231 breast
OVCAR-8 ovarian = tested on: OVCAR-8 ovarian
HCT-116 colon = tested on: HCT-116 colon
COLO 205 colon = tested on: COLO 205 colon
SF-268 CNS = tested on: SF-268 CNS
MDA-MB-435 = tested on: MDA-MB-435
SK-MEL-2 melanoma = tested on: SK-MEL-2 melanoma
RPMI-8226 leukemia = tested on: RPMI-8226 leukemia
U251 CNS = tested on: U251 CNS
HCT-15 colon = tested on: HCT-15 colon
HOP-62 NSCLC = tested on: HOP-62 NSCLC
SW-620 colon = tested on: SW-620 colon
SK-MEL-28 melanoma = tested on: SK-MEL-28 melanoma
A549 NSCLC = tested on: A549 NSCLC
BT-549 breast = tested on: BT-549 breast
SK-OV-3 ovarian = tested on: SK-OV-3 ovarian
HCC-2998 colon = tested on: HCC-2998 colon
NCI-H226 lung = tested on: NCI-H226 lung
LOX IMVI melanoma = tested on: LOX IMVI melanoma
CAKI-1 renal = tested on: CAKI-1 renal
HL-60(TB) leukemia = tested on: HL-60(TB) leukemia
UACC-257 melanoma = tested on: UACC-257 melanoma
SR leukemia = tested on: SR leukemia
HS 578T breast = tested on: HS 578T breast
HT29 colon = tested on: HT29 colon
MALME-3M melanoma = tested on: MALME-3M melanoma
NCI/ADR-RES ovarian = tested on: NCI/ADR-RES ovarian
NCI-H522 lung = tested on: NCI-H522 lung
TK-10 renal = tested on: TK-10 renal
CCRF-CEM leukemia = tested on: CCRF-CEM leukemia
KM12 colon = tested on: KM12 colon
SNB-75 CNS = tested on: SNB-75 CNS
DU-145 prostate = tested on: DU-145 prostate
SF-295 CNS = tested on: SF-295 CNS
UACC-62 melanoma = tested on: UACC-62 melanoma
RXF 393 renal = tested on: RXF 393 renal
NCI-H460 lung = tested on: NCI-H460 lung
SK-MEL-5 melanoma = tested on: SK-MEL-5 melanoma
SNB-19 CNS = tested on: SNB-19 CNS
OVCAR-4 ovarian = tested on: OVCAR-4 ovarian
K-562 leukemia = tested on: K-562 leukemia
T-47D breast = tested on: T-47D breast
UO-31 renal = tested on: UO-31 renal
HOP-92 NSCLC = tested on: HOP-92 NSCLC
786-0 renal = tested on: 786-0 renal

## Clc1ccc2c(c1)N(c1ncnc3ccc(-c4cnc5[nH]ccc5c4)cc13)CC2
EKVX NSCLC
  GI50: 0.789 µM
  TGI: 34.4 µM
PC-3 prostate
  GI50: 2.28 µM
  TGI: 23.6 µM
SN12C renal
  GI50: 1.95 µM
  TGI: 20 µM
NCI-H23 lung
  GI50: 3.2 µM
  TGI: 52.4 µM
OVCAR-5 ovarian
  GI50: 0.898 µM
  TGI: 22 µM
ACHN renal
  GI50: 2.12 µM
  TGI: 28.2 µM
MCF7 breast
  GI50: 0.54 µM
  TGI: > 100 µM
M14 melanoma
  GI50: 0.992 µM
  TGI: 11.9 µM
SF-539 CNS
  GI50: 6.8 µM
  TGI: 48.7 µM
IGROV1 ovarian
  GI50: 0.304 µM
  TGI: 2.27 µM
OVCAR-3 ovarian
  GI50: 1.67 µM
  TGI: 20.4 µM
MOLT-4 leukemia
  GI50: 0.954 µM
  TGI: > 100 µM
MDA-MB-231 breast
  GI50: 2.01 µM
  TGI: 19.3 µM
OVCAR-8 ovarian
  GI50: 3.25 µM
  TGI: 29.5 µM
HCT-116 colon
  GI50: 1.36 µM
  TGI: 14.7 µM
COLO 205 colon
  GI50: 3.21 µM
  TGI: > 100 µM
SF-268 CNS
  GI50: 3.14 µM
  TGI: 24.1 µM
MDA-MB-435
  GI50: 0.295 µM
  TGI: 1.2 µM
SK-MEL-2 melanoma
  GI50: 2.88 µM
  TGI: 22.8 µM
RPMI-8226 leukemia
  GI50: 0.766 µM
  TGI: > 100 µM
U251 CNS
  GI50: 2.51 µM
  TGI: 10.9 µM
HCT-15 colon
  GI50: 1.06 µM
  TGI: 12.5 µM
HOP-62 NSCLC
  GI50: 2.45 µM
  TGI: 17.4 µM
SW-620 colon
  GI50: 1.38 µM
  TGI: 14.7 µM
SK-MEL-28 melanoma
  GI50: 10.2 µM
  TGI: 27.7 µM
A549 NSCLC
  GI50: 2.61 µM
  TGI: 17.7 µM
BT-549 breast
  GI50: 0.949 µM
  TGI: 47.8 µM
SK-OV-3 ovarian
  GI50: 4.03 µM
  TGI: 61.4 µM
HCC-2998 colon
  GI50: 11.3 µM
  TGI: 68.9 µM
NCI-H226 lung
  GI50: 2.76 µM
  TGI: 22 µM
LOX IMVI melanoma
  GI50: 0.734 µM
  TGI: 10.3 µM
CAKI-1 renal
  GI50: 3 µM
  TGI: 25.7 µM
HL-60(TB) leukemia
  GI50: 1.26 µM
  TGI: > 100 µM
UACC-257 melanoma
  GI50: 14.8 µM
  TGI: 63.2 µM
SR leukemia
  GI50: 0.595 µM
  TGI: > 100 µM
HS 578T breast
  GI50: 0.555 µM
  TGI: 16.9 µM
HT29 colon
  GI50: 1.03 µM
  TGI: 2.66 µM
MALME-3M melanoma
  GI50: 1.08 µM
  TGI: 19.5 µM
NCI/ADR-RES ovarian
  GI50: 1.99 µM
  TGI: 69 µM
NCI-H522 lung
  GI50: 0.819 µM
  TGI: 12.5 µM
TK-10 renal
  GI50: 1.29 µM
  TGI: 14.5 µM
CCRF-CEM leukemia
  GI50: 1.71 µM
  TGI: > 100 µM
KM12 colon
  GI50: 1.24 µM
  TGI: 18.6 µM
SNB-75 CNS
  GI50: 0.776 µM
  TGI: 21.1 µM
DU-145 prostate
  GI50: 2.22 µM
  TGI: 19.4 µM
SF-295 CNS
  GI50: 0.88 µM
  TGI: 19.7 µM
UACC-62 melanoma
  GI50: 0.982 µM
  TGI: 21.1 µM
RXF 393 renal
  GI50: 0.442 µM
  TGI: 12.2 µM
NCI-H460 lung
  GI50: 0.952 µM
  TGI: 12.4 µM
SK-MEL-5 melanoma
  GI50: 3.8 µM
  TGI: 26.4 µM
SNB-19 CNS
  GI50: 4.48 µM
  TGI: 35.5 µM
OVCAR-4 ovarian
  GI50: 1.12 µM
  TGI: 16.9 µM
K-562 leukemia
  GI50: 0.542 µM
  TGI: > 100 µM
T-47D breast
  GI50: 0.501 µM
  TGI: 6.48 µM
UO-31 renal
  GI50: 0.484 µM
  TGI: 16.7 µM
HOP-92 NSCLC
  GI50: 2.61 µM
  TGI: 31.5 µM
786-0 renal
  GI50: 1.56 µM
  TGI: 14.5 µM
